Measurements as given in US10669272B2, “Substituted naphthyridinone compounds useful as T cell activators” (BRISTOL-MYERS SQUIBB COMPANY, priority 2018, dated 2020).
Like-named read-outs stand apart in the source and are kept apart here.

Assays:
human DGKα = biological target: T1, human DGKα (Homo sapiens, UniProt P23743); assay: DGKα LIPGLO assay (extruded liposome substrate), in vitro DGK inhibition; format: biochemical; conditions: read-out: DGKa LIPGLO IC50
T1 construct: TVMV protease cleavage site (C); Hexa-His (C); made in house; host or cells: Sf9 insect cells (baculovirus, Bac-to-Bac)
T1 sequence (P23743 with tags, fused parts or gaps): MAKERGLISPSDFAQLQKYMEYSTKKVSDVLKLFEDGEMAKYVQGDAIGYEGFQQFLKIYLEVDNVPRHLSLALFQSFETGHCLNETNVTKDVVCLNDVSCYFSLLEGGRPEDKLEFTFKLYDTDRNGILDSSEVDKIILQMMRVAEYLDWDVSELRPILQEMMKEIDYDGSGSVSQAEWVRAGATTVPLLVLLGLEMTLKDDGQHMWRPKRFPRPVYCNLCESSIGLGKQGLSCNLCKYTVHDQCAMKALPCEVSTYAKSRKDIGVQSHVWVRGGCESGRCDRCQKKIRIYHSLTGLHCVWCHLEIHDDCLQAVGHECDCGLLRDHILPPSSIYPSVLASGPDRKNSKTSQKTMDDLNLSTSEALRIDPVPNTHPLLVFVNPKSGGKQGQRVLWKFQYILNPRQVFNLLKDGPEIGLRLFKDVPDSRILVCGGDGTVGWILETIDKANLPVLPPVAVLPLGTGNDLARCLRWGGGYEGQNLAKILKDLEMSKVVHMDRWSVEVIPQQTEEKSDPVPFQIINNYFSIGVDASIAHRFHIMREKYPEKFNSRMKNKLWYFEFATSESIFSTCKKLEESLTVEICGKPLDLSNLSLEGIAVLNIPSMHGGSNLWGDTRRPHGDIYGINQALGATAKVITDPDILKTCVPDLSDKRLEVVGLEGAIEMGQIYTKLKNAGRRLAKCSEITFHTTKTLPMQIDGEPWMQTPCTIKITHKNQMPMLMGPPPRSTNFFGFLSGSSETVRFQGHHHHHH

human DGKζ = biological target: T2, human DGKζ (Homo sapiens, UniProt Q13574); assay: DGKζ LIPGLO assay (extruded liposome substrate), in vitro DGK inhibition; format: biochemical; conditions: read-out: DGKz LIPGLO IC50
T2 construct: TVMV protease cleavage site (C); Hexa-His (C); made in house; host or cells: Sf9 insect cells (baculovirus, Bac-to-Bac)
T2 sequence (Q13574 with tags, fused parts or gaps isoform Q13574-4): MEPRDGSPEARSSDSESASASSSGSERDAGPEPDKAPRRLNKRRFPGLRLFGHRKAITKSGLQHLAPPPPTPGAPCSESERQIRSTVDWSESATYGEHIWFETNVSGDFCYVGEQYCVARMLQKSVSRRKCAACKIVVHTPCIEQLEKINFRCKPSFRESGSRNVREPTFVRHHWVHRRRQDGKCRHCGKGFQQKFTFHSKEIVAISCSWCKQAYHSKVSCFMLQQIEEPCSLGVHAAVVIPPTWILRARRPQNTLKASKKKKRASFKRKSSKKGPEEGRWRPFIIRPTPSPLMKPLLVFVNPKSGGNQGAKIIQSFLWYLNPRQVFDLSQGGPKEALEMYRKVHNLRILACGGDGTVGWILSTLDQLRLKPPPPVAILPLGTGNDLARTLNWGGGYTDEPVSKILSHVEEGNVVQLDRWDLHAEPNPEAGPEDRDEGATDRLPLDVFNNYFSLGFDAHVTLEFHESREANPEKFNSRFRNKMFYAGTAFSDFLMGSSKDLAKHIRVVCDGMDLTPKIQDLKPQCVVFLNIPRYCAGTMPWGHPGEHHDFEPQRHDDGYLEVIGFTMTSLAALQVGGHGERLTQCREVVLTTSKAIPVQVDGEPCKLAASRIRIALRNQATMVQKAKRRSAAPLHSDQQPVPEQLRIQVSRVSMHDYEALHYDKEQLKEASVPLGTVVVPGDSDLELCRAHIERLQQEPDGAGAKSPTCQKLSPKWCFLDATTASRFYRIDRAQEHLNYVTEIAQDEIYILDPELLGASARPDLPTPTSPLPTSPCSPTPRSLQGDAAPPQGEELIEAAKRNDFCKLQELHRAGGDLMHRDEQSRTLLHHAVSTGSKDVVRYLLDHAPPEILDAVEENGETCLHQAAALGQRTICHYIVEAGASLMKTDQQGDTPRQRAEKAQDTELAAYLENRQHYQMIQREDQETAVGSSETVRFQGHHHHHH

naïve human CD8 T cells = assay: Human CD8 T cells IFN-γ assay; format: cell-based; conditions: read-out: HuCD8 INFG Normalized EC50;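 also: Naïve human CD8 T cells stimulated with plate-bound anti-CD3 and soluble anti-CD28, IFN-γ in supernatant quantified by AlphaLISA and converted to pg/mL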
Method: Human CD8 T Cells IFN-γ Assay
Frozen naïve human CD8 T cells were thawed in AIM-V media, incubated for 2 h in 37° C., and counted. The 384-well tissue culture plate was coated overnight at 4° C. with 20 μL anti-human CD3 at 0.05 μg/mL in PBS, which was removed off the plate before 40,000 cells per 40 microliters CD8 T cells with 0.1 μg/mL soluble anti-human CD28 were added to each well. The compounds were transferred using an Echo liquid handler to the cell plate immediately after the cells were plated. After 20 h incubation at 37° C. incubator, 3 microliters per well supernatants transferred into a new 384-well white assay plate for cytokine measurement.
Interferon-γ (IFN-γ) was quantitated using the AlphLISA kit (Cat # AL217) as described by the manufacturer manual (Perkin Elmer). The counts from each well were converted to IFN-γ concentration (pg/mL).

Human venous whole blood = assay: Human whole blood IFN-γ assay; format: cell-based; conditions: human whole blood, read-out: INFg Whole Blood Normalized Agonist EC50;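 also: blood from healthy donors exposed to compound for 1 h before stimulation with anti-CD3 and anti-CD28 at 1 µg/mL each, IFN-γ quantified in supernatant by AlphaLISA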
Method: Human Whole Blood IFN-γ Assay
Human venous whole blood (22.5 μL per well), obtained from healthy donors, was pre-treated with compounds for one hour at 37° C. in a humidified 95% air/5% CO2 incubator. The blood was stimulated with 2.5 μL anti-human CD3 and anti-CD28 mAb at a final concentration of 1 μg/mL each for 24 hours at 37° C. IFN-γ in the supernatants was measured using AlphLISA kit (Cat # AL217).

[1] = Homo sapiens, T-cell, 20 h, normalized to 3 μM reference compound with anti-CD3 plus anti-CD28 as 100% activation
[2] = normalized to 3 μM reference compound with anti-CD3 plus anti-CD28 as 100% activation
[3] = Homo sapiens, 24 h, normalized to 3 μM reference compound with anti-CD3 plus anti-CD28 as 100% activation

Compound | IC50 (human DGKα; liposome (LIPGLO) assay) | IC50 (human DGKζ; liposome (LIPGLO) assay) | EC50 (naïve human CD8 T cells; [1]) | EC50 (Human venous whole blood; [2]) | EC50 (naïve human CD8 T cells; [2]) | EC50 (Human venous whole blood; [3]) | EC50 (Human venous whole blood; Homo sapiens, normalized to 3 μM reference compound with anti-CD3 plus anti-CD28 as 100% activation) | IC50 (human DGKα; DGKα liposome (LIPGLO) assay) | IC50 (human DGKζ; DGKζ liposome (LIPGLO) assay) | EC50 (naïve human CD8 T cells; Homo sapiens, T-cell, 20 h, naïve human CD8 T cells, anti-CD3 plus anti-CD28, 3 μM reference compound = 100% activation) | EC50 (Human venous whole blood; Homo sapiens, 24 h, anti-CD3 plus anti-CD28, 24 hours, 3 μM reference compound = 100% activation)
C[C@@H]1CN(c2cc(=O)n(C)c3ccc(C#N)nc23)[C@@H](C)CN1C(c1ccccn1)c1ccc(F)cc1F (single isomer, unassigned) [Example 682] | 580 nM | 1500 nM | 39 nM | 320 nM |  |  |  |  |  |  | 
Cn1c(=O)cc(N2CCN(C(c3ccc(F)cc3)c3ccc(F)cc3)C(C(=O)NC3CC3)C2)c2nc(C#N)ccc21 (single isomer, unassigned) [Example 47, 1-(bis(4-fluorophenyl)methyl)-4-(6-cyano-1-methyl-2-oxo-1,2-dihydro-1,5-naphthyridin-4-yl)-N-cyclopropylpiperazine-2-carboxamide] | 260000 nM | 5200 nM |  |  | 10000 nM | 5000 nM |  |  |  |  | 
COc1cc(F)ccc1C(N1C[C@H](C)N(c2cc(=O)n(C)c3ccc(C#N)nc23)C[C@H]1C)C(C)(C)C (single isomer, unassigned) [Example 185] | 4400 nM | 210 nM | 10000 nM | 2000 nM |  |  |  |  |  |  | 
CCc1cc(F)ccc1C(c1ccc(F)cc1)N1C[C@H](C)N(c2cc(=O)n(C)c3ccc(C#N)nc23)C[C@H]1C (single isomer, unassigned) [Example 227] | > 250000 nM | 1000 nM | 16 nM | 13000 nM |  |  |  |  |  |  | 
CCC(c1ccc(F)c(F)c1)N1C[C@H](C)N(c2cc(=O)n(C)c3ccc(C#N)nc23)C[C@H]1C (single isomer, unassigned) [Example 344] | 1000 nM | 1000 nM | 24 nM |  |  | 460 nM |  |  |  |  | 
CCc1cc(F)ccc1C(c1ccc(F)cc1)N1C[C@H](C)N(c2cc(=O)n(C)c3ccc(OC)nc23)C[C@H]1C (single isomer, unassigned) [Example 233] | 27000 nM | 3600 nM |  |  | 10000 nM | 20000 nM |  |  |  |  | 
C[C@@H]1CN(c2cc(=O)n(C)c3ccc(C#N)nc23)[C@@H](C)CN1Cc1ccc(Cl)cc1O [Example 244, 8-[(2S,5R)-4-[(4-chloro-2-hydroxyphenyl)methyl]-2,5-dimethylpiperazin-1-yl]-5-methyl-6-oxo-5,6-dihydro-1,5-naphthyridine-2-carbonitrile] | 260 nM | 1100 nM | 110 nM |  |  | 1700 nM |  |  |  |  | 
C[C@@H]1CN(c2cc(=O)n(C)c3ccc(C#N)nc23)[C@@H](C)CN1C(c1ccccc1)c1cccc(Cl)c1 (stereo partly drawn) [Example 282, 8-[(2S,5R)-4-[(3-chlorophenyl)(phenyl)methyl]-2,5-dimethylpiperazin-1-yl]-5-methyl-6-oxo-5,6-dihydro-1,5-naphthyridine-2-carbonitrile] | 1200 nM | 940 nM | 69 nM |  |  | 3800 nM |  |  |  |  | 
CCOc1cc(F)ccc1C(c1ccc(F)cc1)N1C[C@H](C)N(c2cc(=O)n(C)c3ccc(C#N)nc23)C[C@H]1C (single isomer, unassigned) [Example 230] | 26000 nM | 490 nM |  | 5300 nM | 370 nM |  |  |  |  |  | 
CCOc1cc(F)ccc1C(c1ccc(F)cc1)N1C[C@H](C)N(c2cc(=O)n(C)c3ccc(C#N)nc23)C[C@H]1C (single isomer, unassigned) [Example 229] | 58000 nM | 450 nM |  |  | 1000 nM | 8300 nM |  |  |  |  | 
C[C@@H]1CN(c2cc(=O)n(C)c3ccc(C#N)nc23)[C@@H](C)CN1C(c1ccccc1)c1ccc(F)cc1 (mixture of isomers) [Example 182, 8-[(2S,5R)-4-[(4-fluorophenyl)(phenyl)methyl]-2,5-dimethylpiperazin-1-yl]-5-methyl-6-oxo-5,6-dihydro-1,5-naphthyridine-2-carbonitrile] | 870 nM | 1600 nM | 30 nM |  |  |  | 680 nM |  |  |  | 
C[C@@H]1CN(c2cc(=O)n(C)c3ccc(C#N)nc23)[C@@H](C)CN1Cc1c(F)ccc(F)c1Cl [Example 266, 8-[(2S,5R)-4-[(2-chloro-3,6-difluorophenyl)methyl]-2,5-dimethylpiperazin-1-yl]-5-methyl-6-oxo-5,6-dihydro-1,5-naphthyridine-2-carbonitrile] | 1400 nM | 2100 nM | 1100 nM |  |  | 2800 nM |  |  |  |  | 
CC[C@H]1CN(C(c2ccc(F)cc2)c2ccc(Cl)cc2)[C@H](CC)CN1c1cc(=O)n(C)c2ccc(C#N)nc12 (some centres unmarked) [Example 1031] | 260 nM | 240 nM | 1.3 nM |  |  | 85 nM |  |  |  |  | 
CCc1cc(F)ccc1C(c1ccc(F)cc1)N1C[C@H](C)N(c2cc(=O)n(C)c3ccc(C#N)nc23)C[C@H]1C (single isomer, unassigned) [Example 228] | 58000 nM | 1400 nM |  | 2800 nM | 31 nM |  |  |  |  |  | 
C[C@@H]1CN(c2cc(=O)n(C)c3ccc(C#N)nc23)[C@@H](C)CN1C(c1cccc(F)c1)c1cccc(F)c1 [Example 270, 8-[(2S,5R)-4-[bis(3-fluorophenyl)methyl]-2,5-dimethylpiperazin-1-yl]-5-methyl-6-oxo-5,6-dihydro-1,5-naphthyridine-2-carbonitrile] | 3400 nM | 570 nM | 62 nM |  |  | 2000 nM |  |  |  |  | 
Cc1ccc(C(c2ccc(Cl)cc2)N2C[C@H](C)N(c3cc(=O)n(C)c4ccc(C#N)nc34)C[C@H]2C)cc1 (stereo partly drawn) [Example 299, 8-[(2S,5R)-4-[(4-chlorophenyl)(4-methylphenyl)methyl]-2,5-dimethylpiperazin-1-yl]-5-methyl-6-oxo-5,6-dihydro-1,5-naphthyridine-2-carbonitrile] | 1700 nM | 1100 nM | 17 nM |  |  | 650 nM |  |  |  |  | 
C[C@@H]1CN(c2cc(=O)n(C)c3ccc(C#N)nc23)[C@@H](C)CN1C(c1ccc(Cl)cc1)c1ncccc1F (single isomer, unassigned) [Example 190] | 220 nM | 1100 nM |  | 700 nM | 170 nM |  |  |  |  |  | 
C[C@@H]1CN(c2cc(=O)n(C)c3ccc(C#N)nc23)[C@@H](C)CN1C(c1ccc(F)cc1)c1cccc(F)c1 (single isomer, unassigned) [Example 249] | 820 nM | 440 nM | 32 nM |  |  | 690 nM |  |  |  |  | 
C[C@@H]1CN(c2cc(=O)n(C)c3ccc(C#N)nc23)[C@@H](C)CN1C(c1ccc(F)cc1)C1CCCCO1 (single isomer, unassigned) [Example 359] | 280 nM | 1100 nM | 38 nM | 660 nM |  |  |  |  |  |  | 
C[C@H]1CN(C(c2ccc(F)cc2)c2ccc(F)cc2)[C@H](CN2CCOCC2)CN1c1cc(=O)n(C)c2ccc(C#N)nc12 [Example 1167, 8-((2S,5R)-4-(bis(4-fluorophenyl)methyl)-2-methyl-5-(morpholinomethyl)piperazin-1-yl)-5-methyl-6-oxo-5,6-dihydro-1,5-naphthyridine-2-carbonitrile] | 50000 nM | 6600 nM | 47 nM |  |  | 970 nM |  |  |  |  | 
C[C@@H]1CN(c2cc(=O)n(C)c3ccc(C#N)nc23)[C@@H](C)CN1Cc1cc(F)cc(F)c1 [Example 290, 8-[(2S,5R)-4-[(3,5-difluorophenyl)methyl]-2,5-dimethylpiperazin-1-yl]-5-methyl-6-oxo-5,6-dihydro-1,5-naphthyridine-2-carbonitrile] | 1700 nM | 3500 nM | 2000 nM |  |  | 7900 nM |  |  |  |  | 
C[C@@H]1CN(c2cc(=O)n(C)c3ccc(C#N)nc23)[C@@H](C)CN1C(c1ccc(F)cc1)c1ccc(C(F)F)cc1 (single isomer, unassigned) [Example 667] | 2800 nM | 2700 nM |  | 850 nM | 27 nM |  |  |  |  |  | 
C[C@@H]1CN(c2cc(=O)n(C)c3ccc(C#N)nc23)[C@@H](C)CN1C(c1ccc(F)cc1)c1nc(C2CC2)no1 (single isomer, unassigned) [Example 735] |  |  |  |  |  |  |  | 240 nM | 61 nM | 0.74 nM | 140 nM
C[C@@H]1CN(c2cc(=O)n(C)c3ccc(C#N)nc23)[C@@H](C)CN1C(c1ccccc1)c1cccc(F)c1 (stereo partly drawn) [Example 296, 8-[(2S,5R)-4-[(3-fluorophenyl)(phenyl)methyl]-2,5-dimethylpiperazin-1-yl]-5-methyl-6-oxo-5,6-dihydro-1,5-naphthyridine-2-carbonitrile] | 630 nM | 900 nM | 400 nM |  |  | 1200 nM |  |  |  |  | 
Cc1cccc(C(c2ccc(F)cc2)N2C[C@H](C)N(c3cc(=O)n(C)c4ccc(C#N)nc34)C[C@H]2C)c1 (single isomer, unassigned) [Example 224] | 1500 nM | 57 nM |  | 1000 nM | 24 nM |  |  |  |  |  | 
C[C@@H]1CN(c2cc(=O)n(C)c3ccc(C#N)nc23)[C@@H](C)CN1C(c1ccc(Cl)cc1)c1ccc(Cl)cn1 (single isomer, unassigned) [Example 201] | 450 nM | 790 nM |  |  | 31 nM | 500 nM |  |  |  |  | 
